In patent US20230123334A1, “AMINO LIPID COMPOUND, PREPARATION METHOD THEREFOR, AND APPLICATION THEREOF” (SHENZHEN SHENXIN BIOTECHNOLOGY CO., LTD., priority 2020, published 2023):

How the values were obtained:
Type in all cases: cell-based
[1] = test system: MCF7 cells; experiment: Transfection of MCF7 cell line, mRNA vectors; settings: 50 ng EGFP mRNA per well
Procedure: (§1) Cell line: MCF7 cells (ATCC HTB-22)
Medium: DMEM supplemented with 10 fetal bovine serum (Invitrogen)
(§2) Screening: cell transfection on 96-well plates
Detection (readout): percentage of the number of GFP fluorescent cells relative to the total number of cells (the total number of cells was determined using nucleus dye Hoechst). Lipofectamine2000 (Invitrogen) was used as the positive control.
Method: the experimental method was basically the same with Example 4, and the mass of EGFP mRNA (TriLink) for transfection was 50 ng per well.

[2] = test system: embryonic stem cells (hESC2); experiment: Screening as mRNA vectors in embryonic stem cells; settings: 50 ng EGFP mRNA per well
Procedure: (§3) Cell line: embryonic stem cells (hESC2, cultured according to reported methods: Stem Cells, 2005, 23, 544-549)
(§4) Medium: mTeSR1 (STEMCELL)
Mode of screening: cell transfection on 96-well plate
(§5) Detection (readout): percentage of the number of GFP fluorescent cells relative to the total number of cells. Lipofectamine Stem was used as the positive control.
Method: the experimental method was basically the same with Example 10, and the mass of EGFP mRNA for transfection was 50 ng per well.

[3] = test system: embryonic stem cells (hESC2); experiment: Screening as DNA vectors in embryonic stem cells, flow cytometry; settings: 75 ng plasmid DNA, 48 hours after transfection, flow cytometer
From the text: as §3, §4
(§6) Mode of screening: cell transfection on 96-well plates
as §5
Method: an 8-channel pipette was used for sample addition. The contents shown were for a single well of a 96-well flat plate.
1. Stem cells were cultured to 3-5×10^4 cells per well in a 96-well plate treated with matrigel.
2. The compound (0.01 mmol) prepared in Example 1 was dissolved in 1 mL of anhydrous ethanol. After ultrasonically dissolved, 10 μL of the resultant amino lipid solution in ethanol was taken and mixed with 5 μL of DOPE solution in ethanol ([…]). The obtained mixture was then added with 35 μL of 0.2 M sodium acetate buffer (pH 5.6), and vortexed at a constant rotating speed for 30 s. Then, 4 μL was taken from the obtained product and added to 46 μL of 0.02 M sodium acetate buffer (pH 5.6), and vortexed at a constant rotating speed for 30 s to form a liposome solution. 5 μL of this liposome solution was mixed with 75 ng of plasmid DNA (pSin-EGFP-IRES-Puro) dissolved in 5 μL of 0.02 M sodium acetate buffer, and allowed to stay at room temperature for 30 min to form a lipid/DNA transfection complex.
3. 10 μL of the lipid/DNA transfection complex was incubated at room temperature for 30 min, followed by addition of 90 μL mTeSR1 medium was added and mixing with a pipette. 100 μL of the mixture was added to separate wells of a 96-well culture plate and placed in an incubator containing 5% CO2 at 37° C.
4. 48 hours after transfection, the cells were digested with 0.05% Trypsin-EDTA. The cells were resuspended in a PBS buffer and filtered. The cell suspension was placed in a flow cytometer and the number of GFP-expressing cells in no less than 2000 cells was measured so as to obtain the absolute efficiency of cell transfection. The relative efficiency of cell transfection was obtained by comparing the cell transfection efficiency with the positive control Lipofectamine Stem.

[4] = test system: Hela cells; experiment: Transfection of Hela cell line, DNA vectors; settings: 75 ng plasmid DNA, GFP cells / total cells
Procedure, shortened: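 Amino lipid/DOPE liposomes in sodium acetate pH 5.6 were complexed with 75 ng psin-EGFP-IRES-Puro plasmid for 30 min at room temperature, then mixed with 3-5×10^4 Hela cells in DMEM/10% FBS at 37° C. Hoechst stain after 20-24 h, imaging after a further 20-24 h. Efficiency = GFP-positive cells / total nuclei.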

[5] = test system: cardiomyocytes; experiment: Screening as DNA vectors in cardiomyocytes; design: concentration or dose not given beside the values; settings: method as Example 4
Procedure: Cell line: cardiomyocytes (obtained from induced differentiation of hESC according to reported methods: J. Mol. Cell. Cardiol. 2011, 51, 288-298)
(§7) Medium: DMEM supplemented with 10% fetal bovine serum (Invitrogen)
as §6
(§8) Detection (readout): percentage of the number of GFP fluorescent cells relative to the total number of cells (the total number of cells was determined using nucleus dye Hoechst). Lipofectamine Stem (Invitrogen) was used as the positive control, according to the manufacturer's instructions.
(§9) Method: the experimental method was basically the same with Example 4.

[6] = test system: cardiomyocytes; experiment: Screening as mRNA vectors in cardiomyocytes; settings: 50 ng EGFP mRNA per well
Procedure: Cell line: cardiomyocytes (obtained from induced differentiation of hESC according to reported methods: J Mol. Cell. Cardiol. 2011, 51, 288-298)
as §7, §6, §8
Method: the experimental method was basically the same with Example 4, and the mass of EGFP mRNA for transfection was 50 ng per well.

[7] = test system: Hela cells; experiment: Transfection of Hela cell line, mRNA vectors; settings: 50 ng EGFP mRNA per well
Procedure, shortened: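 HeLa cells in DMEM with 10% FBS transfected with 50 ng EGFP mRNA per well. Readout is percentage of GFP-positive cells among total cells counted by Hoechst nuclear stain; Lipofectamine2000 served as positive control.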

[8] = test system: MCF7 cells; experiment: Transfection of MCF7 cell line, DNA vectors; design: concentration or dose not given beside the values; settings: plasmid DNA, GFP cells / total cells
Procedure: as §1
Medium DMEM supplemented with […] fetal bovine serum
as §2
Detection (readout): percentage of the number of GFP fluorescent cells relative to the total number of cells (the total number of cells was determined using nucleus dye Hoechst). Lipofectamine2000 was used as the positive control, according to the manufacturer's instructions.
as §9

## CCCCCCCCCCCSc1nc(NCCCN(C)C)nc(SCCCCCCCC)n1 [Compound S8S11D6]
[1]
  Absolute mRNA transfection efficiency in MCF7 cells: 46.3%
[2]
  Absolute mRNA transfection efficiency in embryonic stem cells: 10.3%
[3]
  Absolute DNA transfection efficiency in embryonic stem cells: 1.6%
[4]
  Absolute DNA transfection efficiency in Hela cells: 3.9%
[5]
  Absolute DNA transfection efficiency in cardiomyocytes: 1.0%
[6]
  Absolute mRNA transfection efficiency in cardiomyocytes: 18.4%
[7]
  Absolute mRNA transfection efficiency in Hela cells: 3.9%
[8]
  Absolute DNA transfection efficiency in MCF7 cells: 56.8%

## CCCCCCCCCCCNc1nc(NCCN2CCN(C)CC2)nc(SCCCCCCCCC)n1 [Compound S9N11D5]
[1]
  Absolute mRNA transfection efficiency in MCF7 cells: 18.0%
[2]
  Absolute mRNA transfection efficiency in embryonic stem cells: 3.3%
[3]
  Absolute DNA transfection efficiency in embryonic stem cells: 3.0%
[4]
  Absolute DNA transfection efficiency in Hela cells: 22.5%
[5]
  Absolute DNA transfection efficiency in cardiomyocytes: 2.5%
[6]
  Absolute mRNA transfection efficiency in cardiomyocytes: 18.0%
[7]
  Absolute mRNA transfection efficiency in Hela cells: 22.5%
[8]
  Absolute DNA transfection efficiency in MCF7 cells: 17.8%

## CCCCCCCCCCCNc1nc(NCCN2CCCC2)nc(SCCCCCCCC)n1 [Compound S8N11D3]
[1]
  Absolute mRNA transfection efficiency in MCF7 cells: 8.0%
[2]
  Absolute mRNA transfection efficiency in embryonic stem cells: 2.4%
[3]
  Absolute DNA transfection efficiency in embryonic stem cells: 0.2%
[4]
  Absolute DNA transfection efficiency in Hela cells: 26.2%
[5]
  Absolute DNA transfection efficiency in cardiomyocytes: 0.5%
[6]
  Absolute mRNA transfection efficiency in cardiomyocytes: 6.2%
[7]
  Absolute mRNA transfection efficiency in Hela cells: 26.2%
[8]
  Absolute DNA transfection efficiency in MCF7 cells: 3.6%

## CCCCCCCCCCCSc1nc(NCCCCCCCCC)nc(NCCN2CCN(C)CC2)n1 [Compound S11N9D5]
[1]
  Absolute mRNA transfection efficiency in MCF7 cells: 17.8%
[2]
  Absolute mRNA transfection efficiency in embryonic stem cells: 24.9%
[3]
  Absolute DNA transfection efficiency in embryonic stem cells: 0.5%
[4]
  Absolute DNA transfection efficiency in Hela cells: 10.6%
[5]
  Absolute DNA transfection efficiency in cardiomyocytes: 19.7%
[6]
  Absolute mRNA transfection efficiency in cardiomyocytes: 30.7%
[7]
  Absolute mRNA transfection efficiency in Hela cells: 10.6%
[8]
  Absolute DNA transfection efficiency in MCF7 cells: 23.1%

## CCCCCCCCCCCNc1nc(NCCCN2CCOCC2)nc(SCCCCCCCC)n1 [Compound S8N11D8]
[1]
  Absolute mRNA transfection efficiency in MCF7 cells: 0.1%
[2]
  Absolute mRNA transfection efficiency in embryonic stem cells: 1.0%
[3]
  Absolute DNA transfection efficiency in embryonic stem cells: 0.7%
[4]
  Absolute DNA transfection efficiency in Hela cells: 6.8%
[5]
  Absolute DNA transfection efficiency in cardiomyocytes: 2.1%
[6]
  Absolute mRNA transfection efficiency in cardiomyocytes: 1.9%
[7]
  Absolute mRNA transfection efficiency in Hela cells: 6.8%
[8]
  Absolute DNA transfection efficiency in MCF7 cells: 4.4%

## CCCCCCCCCCCSc1nc(NCCCN2CCN(C)CC2)nc(SCCCCCCCC)n1 [Compound S8S11D9]
[1]
  Absolute mRNA transfection efficiency in MCF7 cells: 34.9%
[2]
  Absolute mRNA transfection efficiency in embryonic stem cells: 18.1%
[3]
  Absolute DNA transfection efficiency in embryonic stem cells: 1.0%
[4]
  Absolute DNA transfection efficiency in Hela cells: 6.8%
[5]
  Absolute DNA transfection efficiency in cardiomyocytes: 0.8%
[6]
  Absolute mRNA transfection efficiency in cardiomyocytes: 25.5%
[7]
  Absolute mRNA transfection efficiency in Hela cells: 6.8%
[8]
  Absolute DNA transfection efficiency in MCF7 cells: 59.8%

## CCCCCCCCCCCCNc1nc(NCC2CCN(C)CC2)nc(SCCCCCCCCC)n1 [Compound S9N12D10]
[1]
  Absolute mRNA transfection efficiency in MCF7 cells: 11.2%
[2]
  Absolute mRNA transfection efficiency in embryonic stem cells: 14.0%
[3]
  Absolute DNA transfection efficiency in embryonic stem cells: 5.3%
[4]
  Absolute DNA transfection efficiency in Hela cells: 12.9%
[5]
  Absolute DNA transfection efficiency in cardiomyocytes: 3.6%
[6]
  Absolute mRNA transfection efficiency in cardiomyocytes: 40.6%
[7]
  Absolute mRNA transfection efficiency in Hela cells: 12.9%
[8]
  Absolute DNA transfection efficiency in MCF7 cells: 31.7%

## CCCCCCCCCCCCNc1nc(NCCN2CCCC2)nc(SCCCCCCCCC)n1 [Compound S9N12D3]
[1]
  Absolute mRNA transfection efficiency in MCF7 cells: 15.9%
[2]
  Absolute mRNA transfection efficiency in embryonic stem cells: 4.6%
[3]
  Absolute DNA transfection efficiency in embryonic stem cells: 2.3%
[4]
  Absolute DNA transfection efficiency in Hela cells: 23.7%
[5]
  Absolute DNA transfection efficiency in cardiomyocytes: 1.1%
[6]
  Absolute mRNA transfection efficiency in cardiomyocytes: 29.2%
[7]
  Absolute mRNA transfection efficiency in Hela cells: 23.7%
[8]
  Absolute DNA transfection efficiency in MCF7 cells: 27.5%

## CCCCCCCCCCCCNc1nc(NCCN2CCN(C)CC2)nc(SCCCCCCCCC)n1 [Compound S9N12D5]
[1]
  Absolute mRNA transfection efficiency in MCF7 cells: 16.6%
[2]
  Absolute mRNA transfection efficiency in embryonic stem cells: 10.5%
[3]
  Absolute DNA transfection efficiency in embryonic stem cells: 2.5%
[4]
  Absolute DNA transfection efficiency in Hela cells: 24.1%
[5]
  Absolute DNA transfection efficiency in cardiomyocytes: 4.0%
[6]
  Absolute mRNA transfection efficiency in cardiomyocytes: 25.5%
[7]
  Absolute mRNA transfection efficiency in Hela cells: 24.1%
[8]
  Absolute DNA transfection efficiency in MCF7 cells: 13.7%

## CCCCCCCCCCCCSc1nc(NCC2CCN(C)CC2)nc(SCCCCCCCC)n1 [Compound S8S12D10]
[1]
  Absolute mRNA transfection efficiency in MCF7 cells: 50.2%
[2]
  Absolute mRNA transfection efficiency in embryonic stem cells: 24.6%
[3]
  Absolute DNA transfection efficiency in embryonic stem cells: 2.6%
[4]
  Absolute DNA transfection efficiency in Hela cells: 11.7%
[5]
  Absolute DNA transfection efficiency in cardiomyocytes: 1.0%
[6]
  Absolute mRNA transfection efficiency in cardiomyocytes: 25.6%
[7]
  Absolute mRNA transfection efficiency in Hela cells: 11.7%
[8]
  Absolute DNA transfection efficiency in MCF7 cells: 37.7%

## CCCCCCCCCCCSc1nc(NCCCCCCCCC)nc(NCC2CCN(C)CC2)n1 [Compound S11N9D10]
[1]
  Absolute mRNA transfection efficiency in MCF7 cells: 36.6%
[2]
  Absolute mRNA transfection efficiency in embryonic stem cells: 39.3%
[3]
  Absolute DNA transfection efficiency in embryonic stem cells: 0.5%
[4]
  Absolute DNA transfection efficiency in Hela cells: 16.2%
[5]
  Absolute DNA transfection efficiency in cardiomyocytes: 16.4%
[6]
  Absolute mRNA transfection efficiency in cardiomyocytes: 29.6%
[7]
  Absolute mRNA transfection efficiency in Hela cells: 16.2%
[8]
  Absolute DNA transfection efficiency in MCF7 cells: 48.7%

## CCCCCCCCCCCCSc1nc(NCCCN(C)C)nc(SCCCCCCCC)n1 [Compound S8S12D6]
[1]
  Absolute mRNA transfection efficiency in MCF7 cells: 50.0%
[2]
  Absolute mRNA transfection efficiency in embryonic stem cells: 7.1%
[3]
  Absolute DNA transfection efficiency in embryonic stem cells: 3.3%
[4]
  Absolute DNA transfection efficiency in Hela cells: 6.3%
[5]
  Absolute DNA transfection efficiency in cardiomyocytes: 1.6%
[6]
  Absolute mRNA transfection efficiency in cardiomyocytes: 44.9%
[7]
  Absolute mRNA transfection efficiency in Hela cells: 6.3%
[8]
  Absolute DNA transfection efficiency in MCF7 cells: 34.4%

## CCCCCCCCCCCCSc1nc(NCCCN2CCN(C)CC2)nc(SCCCCCCCC)n1 [Compound S8S12D9]
[1]
  Absolute mRNA transfection efficiency in MCF7 cells: 5.3%
[2]
  Absolute mRNA transfection efficiency in embryonic stem cells: 16.3%
[3]
  Absolute DNA transfection efficiency in embryonic stem cells: 2.9%
[4]
  Absolute DNA transfection efficiency in Hela cells: 1.7%
[5]
  Absolute DNA transfection efficiency in cardiomyocytes: 1.0%
[6]
  Absolute mRNA transfection efficiency in cardiomyocytes: 14.0%
[7]
  Absolute mRNA transfection efficiency in Hela cells: 1.7%
[8]
  Absolute DNA transfection efficiency in MCF7 cells: 13.1%
